In US20240116951A1, “HETEROCYCLIC COMPOUNDS AND USES THEREOF” (Kumquat Biosciences Inc., priority 2022, published 2024) one finds IC50 data, which are given here for 15 compounds.

Read-outs that look alike come from different tables or passages of the source.

What all share (format): binding
The target of one assay is T1, KRAS WT (Homo sapiens, UniProt P01116).
T1 construct: made in house; host or cells: E. coli, e.g. BL21 (DE3)
As to the kind of experiment: HTRF assay of wildtype K-Ras interaction with SOS1 (PPI-HTRF). The method, boiled down: (§1)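 HTRF on GST-K-Ras/His-hSOS1 was measured after ≥10 min in pH 7.4 HEPES buffer. IC50 values were derived from the ratiometric emission signal.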

Another assay addresses T2, KRAS G12D (Homo sapiens, UniProt P01116, G12D).
T2 construct: made in house; host or cells: E. coli, e.g. BL21 (DE3)
As to the kind of experiment: HTRF assay of K-Ras G12D interaction with SOS1 (PPI-HTRF). The essentials:
as §1

A further assay deals with T3, KRAS G12S (Homo sapiens, UniProt P01116, G12S).
T3 construct: made in house; host or cells: E. coli, e.g. BL21 (DE3)
T3 sequence (P01116 1-188 isoform P01116-2 G12S): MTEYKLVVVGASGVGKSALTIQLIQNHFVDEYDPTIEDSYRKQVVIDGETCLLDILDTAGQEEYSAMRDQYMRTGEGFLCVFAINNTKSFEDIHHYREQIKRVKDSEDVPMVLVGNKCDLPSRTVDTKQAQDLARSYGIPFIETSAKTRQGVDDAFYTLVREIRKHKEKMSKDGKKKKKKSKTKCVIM
Kind of assay: HTRF assay of K-Ras G12S interaction with SOS1 (PPI-HTRF). The method, boiled down: as §1

Where [1] appears, read: HTRF, 5 nM KRAS WT, read-out: PPI-HTRF-5 nM KRAS WT.
[2] abbreviates: HTRF, 5 nM KRAS G12D, read-out: PPI-HTRF-5 nM KRAS G12D.
Setting [3] is: 5 nM KRAS G12S, read-out: PPI-HTRF-5 nM KRAS G12S.

T2 sequence (P01116 1-188 isoform P01116-2 G12D): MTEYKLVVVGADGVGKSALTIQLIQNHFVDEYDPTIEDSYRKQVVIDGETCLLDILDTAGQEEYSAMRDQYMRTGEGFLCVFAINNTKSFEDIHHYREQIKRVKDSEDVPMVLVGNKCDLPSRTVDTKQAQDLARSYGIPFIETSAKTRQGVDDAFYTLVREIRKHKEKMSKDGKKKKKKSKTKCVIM
T1 sequence (P01116 1-188 isoform P01116-2): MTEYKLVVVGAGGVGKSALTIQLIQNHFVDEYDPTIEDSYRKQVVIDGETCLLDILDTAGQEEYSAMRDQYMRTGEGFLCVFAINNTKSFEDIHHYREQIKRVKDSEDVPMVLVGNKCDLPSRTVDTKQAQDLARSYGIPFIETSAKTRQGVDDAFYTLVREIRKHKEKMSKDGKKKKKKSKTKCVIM

With `N#Cc1c(N)sc2c(F)ccc(-c3c(Cl)cc4c(N5CCC6(CCN6C#N)C5)nc(OC[C@@]56CCCN5C[C@H](F)C6)nc4c3F)c12` (stereo partly drawn) [Compound 303, 6-(7-(2-amino-3-cyano-7-fluorobenzo[b]thiophen-4-yl)-6-chloro-8-fluoro-2-(((2R,7aS)-2-fluorotetrahydro-1H-pyrrolizin-7a(5H)-yl)methoxy)quinazolin-4-yl)-1,6-diazaspiro[3.4]octane-1-carbonitrile], the IC50 on KRAS WT (setting [1]), on KRAS G12D (setting [2]) and on KRAS G12S (setting [3]) was under 5 µM throughout.
Turning to `N#Cc1c(N)sc2c(F)ccc(-c3c(Cl)cc4c(N5CCC6(CCCN6C(=O)[C@@H]6N[C@H]6C6CC6)CC5)nc(OC[C@@]56CCCN5C[C@H](F)C6)nc4c3F)c12` [Compound 295, 2-amino-4-(6-chloro-4-(1-((2R,3S)-3-cyclopropylaziridine-2-carbonyl)-1,8-diazaspiro[4.5]decan-8-yl)-8-fluoro-2-(((2R,7aS)-2-fluorotetrahydro-1H-pyrrolizin-7a(5H)-yl)methoxy)quinazolin-7-yl)-7-fluorobenzo[b]thiophene-3-carbonitrile], the IC50 on KRAS WT (setting [1]), at KRAS G12D (setting [2]) and at KRAS G12S (setting [3]) was under 5 µM throughout.
For `C[C@H]1N(c2nc(OC[C@@]34CCCN3C[C@H](F)C4)nc3c(F)c(-c4ccc(F)c5sc(N)c(C#N)c45)c(Cl)cc23)CC[C@@]12CCN2C(=O)n1cnc(C(F)F)n1` [Compound 325, 2-amino-4-(6-chloro-4-((4R,5R)-1-(3-(difluoromethyl)-1H-1,2,4-triazole-1-carbonyl)-5-methyl-1,6-diazaspiro[3.4]octan-6-yl)-8-fluoro-2-(((2R,7aS)-2-fluorotetrahydro-1H-pyrrolizin-7a(5H)-yl)methoxy)quinazolin-7-yl)-7-fluorobenzo[b]thiophene-3-carbonitrile], the IC50 at KRAS WT (setting [1]), on KRAS G12D (setting [2]) and at KRAS G12S (setting [3]) was under 5 µM each time.
Take `Cc1nc(C)n(C(=O)N2CC[C@]23CCN(c2nc(OC[C@@]45CCCN4C[C@H](F)C5)nc4c(F)c(-c5ccc(F)c6sc(N)c(C#N)c56)c(Cl)cc24)C3)n1` [Compound 306, 2-amino-4-(6-chloro-4-((S)-1-(3,5-dimethyl-1H-1,2,4-triazole-1-carbonyl)-1,6-diazaspiro[3.4]octan-6-yl)-8-fluoro-2-(((2R,7aS)-2-fluorotetrahydro-1H-pyrrolizin-7a(5H)-yl)methoxy)quinazolin-7-yl)-7-fluorobenzo[b]thiophene-3-carbonitrile]: the IC50 at KRAS WT (setting [1]), at KRAS G12D (setting [2]) and on KRAS G12S (setting [3]) was under 5 µM in each case.
Take `N#Cc1c(N)sc2c(F)ccc(-c3c(Cl)cc4c(N5CCC6(C5)N(C(=O)n5cncn5)CC6(F)F)nc(OC[C@@]56CCCN5C[C@H](F)C6)nc4c3F)c12` (stereo partly drawn) [Compound 283, 2-amino-4-(6-chloro-4-(3,3-difluoro-1-(1H-1,2,4-triazole-1-carbonyl)-1,6-diazaspiro[3.4]octan-6-yl)-8-fluoro-2-(((2R,7aS)-2-fluorotetrahydro-1H-pyrrolizin-7a(5H)-yl)methoxy)quinazolin-7-yl)-7-fluorobenzo[b]thiophene-3-carbonitrile]: the IC50 at KRAS WT (setting [1]), on KRAS G12D (setting [2]) and at KRAS G12S (setting [3]) was under 5 µM each time.
With `N#Cc1c(N)sc2c(F)ccc(-c3c(Cl)cc4c(N5CCC6(CCN6C(=O)n6cccc6C#N)C5)nc(OC[C@@]56CCCN5C[C@H](F)C6)nc4c3F)c12` (stereo partly drawn) [Compound 289, 1-(6-(7-(2-amino-3-cyano-7-fluorobenzo[b]thiophen-4-yl)-6-chloro-8-fluoro-2-(((2R,7aS)-2-fluorotetrahydro-1H-pyrrolizin-7a(5H)-yl)methoxy)quinazolin-4-yl)-1,6-diazaspiro[3.4]octane-1-carbonyl)-1H-pyrrole-2-carbonitrile], the IC50 at KRAS WT (setting [1]), at KRAS G12D (setting [2]) and at KRAS G12S (setting [3]) was under 5 µM throughout.
Regarding `N#Cc1c(N)sc2c(F)ccc(-c3c(Cl)cc4c(N5CCC6(CCN6C(=O)OC(C(F)(F)F)C(F)(F)F)C5)nc(OC[C@@]56CCCN5C[C@H](F)C6)nc4c3F)c12` (stereo partly drawn) [Compound 237, 1,1,1,3,3,3-hexafluoropropan-2-yl 6-(7-(2-amino-3-cyano-7-fluorobenzo[b]thiophen-4-yl)-6-chloro-8-fluoro-2-(((2R,7aS)-2-fluorotetrahydro-1H-pyrrolizin-7a(5H)-yl)methoxy)quinazolin-4-yl)-1,6-diazaspiro[3.4]octane-1-carboxylate], the IC50 on KRAS WT (setting [1]) is under 5 µM; on KRAS G12D (setting [2]) it was over 5 µM; at KRAS G12S (setting [3]) it was under 5 µM.
With `N#Cc1c(N)sc2c(F)ccc(-c3c(Cl)cc4c(N5CCC6(CCN6C(=O)n6cnc(C7CC7)n6)C5)nc(OC[C@@]56CCCN5C[C@H](F)C6)nc4c3F)c12` (stereo partly drawn) [Compound 308, 2-amino-4-(6-chloro-4-(1-(3-cyclopropyl-1H-1,2,4-triazole-1-carbonyl)-1,6-diazaspiro[3.4]octan-6-yl)-8-fluoro-2-(((2R,7aS)-2-fluorotetrahydro-1H-pyrrolizin-7a(5H)-yl)methoxy)quinazolin-7-yl)-7-fluorobenzo[b]thiophene-3-carbonitrile], the IC50 at KRAS WT (setting [1]), on KRAS G12D (setting [2]) and at KRAS G12S (setting [3]) was under 5 µM each time.
In the case of `N#Cc1c(N)sc2c(F)ccc(-c3c(Cl)cc4c(N5CC[C@@]6(CCN6)C5)nc(OC[C@@]56CCCN5C[C@H](F)C6)nc4c3F)c12` [Compound 331, 2-amino-4-(6-chloro-8-fluoro-2-(((2R,7aS)-2-fluorotetrahydro-1H-pyrrolizin-7a(5H)-yl)methoxy)-4-((S)-1,6-diazaspiro[3.4]octan-6-yl)quinazolin-7-yl)-7-fluorobenzo[b]thiophene-3-carbonitrile], the IC50 at KRAS WT (setting [1]), at KRAS G12D (setting [2]) and on KRAS G12S (setting [3]) was under 5 µM each time.
Take `N#Cc1c(N)sc2c(F)ccc(-c3c(Cl)cc4c(N5CCC6(CCN6C(=O)Oc6ccc([N+](=O)[O-])cc6)C5)nc(OC[C@@]56CCCN5C[C@H](F)C6)nc4c3F)c12` (stereo partly drawn) [Compound 298, 4-nitrophenyl 6-(7-(2-amino-3-cyano-7-fluorobenzo[b]thiophen-4-yl)-6-chloro-8-fluoro-2-(((2R,7aS)-2-fluorotetrahydro-1H-pyrrolizin-7a(5H)-yl)methoxy)quinazolin-4-yl)-1,6-diazaspiro[3.4]octane-1-carboxylate]: the IC50 against KRAS WT, at KRAS G12D and against KRAS G12S (PPI-HTRF-5 nM KRAS G12S) was under 5 µM each time.
Take `N#Cc1c(N)sc2c(F)ccc(-c3c(Cl)cc4c(N5CCC6(CCN6C(=O)n6ccnc6C#N)C5)nc(OC[C@@]56CCCN5C[C@H](F)C6)nc4c3F)c12` (stereo partly drawn) [Compound 287, 1-(6-(7-(2-amino-3-cyano-7-fluorobenzo[b]thiophen-4-yl)-6-chloro-8-fluoro-2-(((2R,7aS)-2-fluorotetrahydro-1H-pyrrolizin-7a(5H)-yl)methoxy)quinazolin-4-yl)-1,6-diazaspiro[3.4]octane-1-carbonyl)-1H-imidazole-2-carbonitrile]: the IC50 at KRAS WT (setting [1]), at KRAS G12D (setting [2]) and at KRAS G12S (setting [3]) was under 5 µM each time.
As to `N#Cc1c(N)sc2c(F)ccc(-c3c(Cl)cc4c(N5CCC6(CCN6C(=O)n6nccn6)C5)nc(OC[C@@]56CCCN5C[C@H](F)C6)nc4c3F)c12` (stereo partly drawn) [Compound 300, 4-(4-(1-(2H-1,2,3-triazole-2-carbonyl)-1,6-diazaspiro[3.4]octan-6-yl)-6-chloro-8-fluoro-2-(((2R,7aS)-2-fluorotetrahydro-1H-pyrrolizin-7a(5H)-yl)methoxy)quinazolin-7-yl)-2-amino-7-fluorobenzo[b]thiophene-3-carbonitrile], the IC50 at KRAS WT (setting [1]), at KRAS G12D (setting [2]) and on KRAS G12S (setting [3]) was under 5 µM in each case.
Regarding `N#Cc1c(N)sc2c(F)ccc(-c3c(F)c4nc(OC[C@@]56CCCN5C[C@H](F)C6)nc(N5CCC6(CCN6C(=O)n6cncn6)C5)c4c(=O)n3C3CC3)c12` (stereo partly drawn) [Compound 267, 4-(4-(1-(1H-1,2,4-triazole-1-carbonyl)-1,6-diazaspiro[3.4]octan-6-yl)-6-cyclopropyl-8-fluoro-2-(((2R,7aS)-2-fluorotetrahydro-1H-pyrrolizin-7a(5H)-yl)methoxy)-5-oxo-5,6-dihydropyrido[4,3-d]pyrimidin-7-yl)-2-amino-7-fluorobenzo[b]thiophene-3-carbonitrile], the IC50 on KRAS WT (setting [1]), at KRAS G12D (setting [2]) and on KRAS G12S (setting [3]) was under 5 µM throughout.
Take `C[C@H](Oc1nc(N2CCC3(CCN3C(=O)n3cncn3)C2)c2cc(Cl)c(-c3ccc(F)c4sc(N)c(C#N)c34)c(F)c2n1)[C@@H]1CCCN1C` (stereo partly drawn) [Compound 207, 4-(4-(1-(1H-1,2,4-triazole-1-carbonyl)-1,6-diazaspiro[3.4]octan-6-yl)-6-chloro-8-fluoro-2-((S)-1-((S)-1-methylpyrrolidin-2-yl)ethoxy)quinazolin-7-yl)-2-amino-7-fluorobenzo[b]thiophene-3-carbonitrile]: the IC50 on KRAS WT (setting [1]), at KRAS G12D (setting [2]) and on KRAS G12S (setting [3]) was under 5 µM in each case.
Regarding `CN(C)C1CN(c2nc(N3CCC4(CCN4C(=O)n4cncn4)C3)c3cc(Cl)c(-c4ccc(F)c5sc(N)c(C#N)c45)c(F)c3n2)C1` (stereo not drawn) [Compound 203, 4-(4-(1-(1H-1,2,4-triazole-1-carbonyl)-1,6-diazaspiro[3.4]octan-6-yl)-6-chloro-2-(3-(dimethylamino)azetidin-1-yl)-8-fluoroquinazolin-7-yl)-2-amino-7-fluorobenzo[b]thiophene-3-carbonitrile], the values for the IC50 at KRAS WT (setting [1]), on KRAS G12D (setting [2]) and on KRAS G12S (setting [3]) were under 5 µM, over 5 µM and under 5 µM, respectively.
